# Laboratory results published in patent US6375928B1, “Neutrophil stimulating peptides” (Peptech Limited, priority 1990, dated 2002).
# Where no end group is shown, it is not given here. The star is where a group is joined. Acm = CC(=O)NC*
# Legend:
# Format in all cases: cell-based
# human neutrophils [1] = assay: Chemiluminescence assay: priming of neutrophils for F-met-leu-phe response (respiratory burst); details: for Chemiluminescence, neutrophil respiratory burst: 100 ug peptide, second, Table 4; for lucigenin dependent chemiluminescence, peak of response: 20 min pretreatment before f-met-leu-phe; for chemiluminescence (repeat experiment, Table 3): peptide + fMLP; for Chemiluminescence mean + sem: priming neutrophils for respiratory burst
# Method: Purified human neutrophils were pretreated with peptide for 20 minutes before the addition of f-met-leu-phe. The lucigenin dependent chemiluminescence response, which reflects superoxide production, was then measured. The results obtained are set out in Table 2 and are expressed as mV of lucigenin dependent chemiluminescence and represent the maximal cell activity attained.
# Results are expressed as mV of lucigenin dependent chemiluminescence and represent peak of response i.e. the maximal cell activity attained.
# neutrophils [2] = assay: Superoxide formation, cytochrome reduction assay
# From the text: The effect of peptides 308 and 309 (SEQ ID NOs. 10 & 11) on superoxide formation was examined by the cytochrome reduction assay, according to the procedure of Ferrante, 1989 (Infection and Immunity), 57: 2115-2122). The results, expressed as n moles of O2/5×10^5 cells as set out in Table 6.
# neutrophils [3] = assay: Neutrophil random migration out of wells in agarose
# From the text: Migration of cells is an important property by which cells reach infection sites. Their accumulation at these sites is also dependent on the capacity of inflammatory mediators to inhibit their migration out of the sites.
# neutrophils [4] = assay: Chemotactic properties, neutrophil migration under agarose; details: towards agent well; 1 × 10^−7 M fMLP, peptide, or 10^3 U/ml TNFα; 2×10^5 neutrophils
# Method: 5 μl of neutrophils (2×10^5 cells) were added to the inner well, with chemotactic agent or control medium added to the outer wells. Migration at various time intervals was then measured.
# human neutrophils [5] = assay: Chemiluminescence assay: priming of neutrophils for F-met-leu-phe response (respiratory burst); details: peptide alone
substance,measurement,setting,value
L T H T I S R I A (LTHTISRIA) [Peptide 393],"Chemiluminescence, neutrophil respiratory burst",human neutrophils [1],0.31 mV
HVLLTHTISRIAVSYQTKVNLL (HVLLTHTISRIAVSYQTKVNLL) [Peptide 309],neutrophil stimulating activity / stimulation of neutrophil respiratory burst (in words),human neutrophils [1],neutrophil stimulating activity
same,priming of neutrophils for the respiratory burst associated with f-met-leu-phe treatment (in words),human neutrophils [1],found to prime human neutrophils for the respiratory burst
same,"Chemiluminescence, neutrophil respiratory burst",human neutrophils [1],4.70 mV
same,"lucigenin dependent chemiluminescence, peak of response",human neutrophils [1]; peptide 1 μg/10^6 cells,0.38 mV
same,"lucigenin dependent chemiluminescence, peak of response",human neutrophils [1]; peptide 10 μg/10^6 cells,0.98 mV
same,"lucigenin dependent chemiluminescence, peak of response",human neutrophils [1]; peptide 100 μg/10^6 cells,13.44 mV
same,"chemiluminescence (repeat experiment, Table 3)",human neutrophils [1]; 10 μg/10^6 cells,2.46 mV
same,"chemiluminescence (repeat experiment, Table 3)",human neutrophils [1]; 100 μg/10^6 cells,12.84 mV
same,superoxide formation,"neutrophils [2]; peptide + fMLP, 10 μg/5 × 10^5 cells",3.87 n moles of O2/5×10^5 cells
same,superoxide formation,"neutrophils [2]; peptide + fMLP, 100 μg/5 × 10^5 cells",5.14 n moles of O2/5×10^5 cells
same,superoxide formation,"neutrophils [2]; peptide alone, 10 μg/5 × 10^5 cells",0.62 n moles of O2/5×10^5 cells
same,superoxide formation,"neutrophils [2]; peptide alone, 100 μg/5 × 10^5 cells",2.30 n moles of O2/5×10^5 cells
same,effect on neutrophil random migration (in words),neutrophils [3],potent inhibitors of neutrophil migration
same,Inhibition of Migration,neutrophils [3]; 10 μg/10^6 cells,0%
same,Inhibition of Migration,neutrophils [3]; 100 μg/10^6 cells,100%
same,"Migration distance at 1.5 h, Agent",neutrophils [4],0.53 mm
same,"Migration distance at 2.5 h, Agent",neutrophils [4],0.68 mm
same,"chemiluminescence (repeat experiment, Table 3)",human neutrophils [5]; 10 μg/10^6 cells,0.31 mV
same,"chemiluminescence (repeat experiment, Table 3)",human neutrophils [5]; 100 μg/10^6 cells,0.69 mV
L S A E I N R P D Y L D F A E S G Q V (LSAEINRPDYLDFAESGQV) [Peptide 305],"lucigenin dependent chemiluminescence, peak of response",human neutrophils [1]; peptide 1 μg/10^6 cells,0.27 mV
same,"lucigenin dependent chemiluminescence, peak of response",human neutrophils [1]; peptide 10 μg/10^6 cells,0.36 mV
same,"lucigenin dependent chemiluminescence, peak of response",human neutrophils [1]; peptide 100 μg/10^6 cells,0.24 mV
A K P W Y E P I Y L (AKPWYEPIYL) [Peptide 275],"lucigenin dependent chemiluminescence, peak of response",human neutrophils [1]; peptide 1 μg/10^6 cells,0.99 mV
same,"lucigenin dependent chemiluminescence, peak of response",human neutrophils [1]; peptide 10 μg/10^6 cells,0.69 mV
same,"lucigenin dependent chemiluminescence, peak of response",human neutrophils [1]; peptide 100 μg/10^6 cells,0.43 mV
same,"lucigenin dependent chemiluminescence, peak of response",human neutrophils [1]; peptide 500 μg/10^6 cells,0.80 mV
V R S S S R T P S D K P V A H V V A (VRSSSRTPSDKPVAHVVA) [Peptide 301],"lucigenin dependent chemiluminescence, peak of response",human neutrophils [1]; peptide 1 μg/10^6 cells,0.93 mV
same,"lucigenin dependent chemiluminescence, peak of response",human neutrophils [1]; peptide 10 μg/10^6 cells,0.74 mV
same,"lucigenin dependent chemiluminescence, peak of response",human neutrophils [1]; peptide 100 μg/10^6 cells,0.55 mV
same,"lucigenin dependent chemiluminescence, peak of response",human neutrophils [1]; peptide 500 μg/10^6 cells,1.10 mV
P S A H V L L T H T I (PSAHVLLTHTI) [Peptide 418],neutrophil stimulating activity / stimulation of neutrophil respiratory burst (in words),human neutrophils [1],neutrophil stimulating activity
"K G Q G Cys (Acm) P S T H V L L T H T (KGQGC(Acm)PSTHVLLTHT) [Peptide 462, reference compound]",priming of neutrophils for the respiratory burst associated with f-met-leu-phe treatment (in words),human neutrophils [1],does not possess the biological activity of those peptides
same,Chemiluminescence mean + sem,human neutrophils [1]; 1 μg peptide,3.1 ± 0.5 mV
same,Chemiluminescence mean + sem,human neutrophils [1]; 10 μg peptide,4.8 ± 0.7 mV
same,Chemiluminescence mean + sem,human neutrophils [1]; 100 μg peptide,4.8 ± 0.5 mV
L R D N Q L V V P S E G L Y L I (LRDNQLVVPSEGLYLI) [Peptide 302],"lucigenin dependent chemiluminescence, peak of response",human neutrophils [1]; peptide 1 μg/10^6 cells,0.16 mV
same,"lucigenin dependent chemiluminescence, peak of response",human neutrophils [1]; peptide 10 μg/10^6 cells,0.18 mV
same,"lucigenin dependent chemiluminescence, peak of response",human neutrophils [1]; peptide 100 μg/10^6 cells,0.29 mV
